Test results as given in patent publication US20160311831A1, “Imidazotriazinones as PDE1 Inhibitors” (H. Lundbeck A/S, priority 2015, published 2016).

Assays:
Format in all cases: biochemical
PDE9 = PDE9 (Homo sapiens, UniProt O76083); assay: PDE9 inhibition assay, SPA with 3H-cAMP; details: compound at 10 microM; 10 nM 3H-cAMP, 1 hr incubation
Procedure: A PDE9 assay may for example, be performed as follows: The assay is performed in 60 μL samples containing a fixed amount of the relevant PDE enzyme (sufficient to convert 20-25% of the cyclic nucleotide substrate), a buffer (50 mM HEPES7.6; 10 mM MgCl2; 0.02% Tween20), 0.1 mg/mL BSA, 225 pCi of ^3H-labelled cyclic nucleotide substrate, tritium labeled cAMP to a final concentration of 5 nM and varying amounts of inhibitors. Reactions are initiated by addition of the cyclic nucleotide substrate, and reactions are allowed to proceed for one hr at room temperature before being terminated through mixing with 15 μL 8 mg/mL yttrium silicate SPA beads (Amersham). The beads are allowed to settle for one hr in the dark before the plates are counted in a Wallac 1450 Microbeta counter. The measured signal can be converted to activity relative to an uninhibited control (100%) and IC50 values can be calculated using the Xlfit extension to EXCEL.
In the context of the present invention the assay was performed in 60 uL assay buffer (50 mM HEPES pH 7.6; 10 mM MgCl2; 0.02% Tween20) containing enough PDE9 to convert 20-25% of 10 nM ^3H-cAMP and varying amounts of inhibitors. Following a 1 hr incubation the reactions were terminated by addition of 15 uL 8 mg/mL yttrium silicate SPA beads (Amersham). The beads were allowed to settle for one hr in the dark before the plates were counted in a Wallac 1450 Microbeta counter.

PDE1B = PDE1B (Homo sapiens, UniProt Q01064); assay: PDE1 inhibition assay (PDE1B), SPA with tritium labelled cAMP; details: 15 nM tritium labelled cAMP, 1 hr at room temperature
PDE1B, sequence (Q01064 whole entry): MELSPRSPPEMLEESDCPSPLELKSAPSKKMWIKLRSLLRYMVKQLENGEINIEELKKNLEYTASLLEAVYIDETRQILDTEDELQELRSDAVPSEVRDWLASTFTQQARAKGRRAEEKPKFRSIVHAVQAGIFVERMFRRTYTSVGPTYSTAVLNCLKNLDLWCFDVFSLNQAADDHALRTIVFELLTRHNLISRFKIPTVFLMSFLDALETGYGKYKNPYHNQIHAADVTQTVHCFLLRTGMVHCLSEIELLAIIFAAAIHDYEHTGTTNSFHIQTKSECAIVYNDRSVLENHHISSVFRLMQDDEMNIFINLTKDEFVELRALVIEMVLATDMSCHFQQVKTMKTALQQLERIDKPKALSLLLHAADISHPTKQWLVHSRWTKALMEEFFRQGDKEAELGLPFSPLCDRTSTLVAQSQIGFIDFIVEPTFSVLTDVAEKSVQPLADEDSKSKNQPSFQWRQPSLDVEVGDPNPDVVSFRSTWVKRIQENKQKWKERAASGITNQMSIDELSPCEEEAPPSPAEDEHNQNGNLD
Procedure: (§1) PDE1A, PDE1B and PDE1C assays were performed as follows: the assays was performed in 60 μL samples containing a fixed amount of the PDE1 enzym1 (sufficient to convert 20-25% of the cyclic nucleotide substrate), a buffer (50 mM HEPES pH 7.6; 10 mM MgCl2; 0.02% Tween20), 0.1 mg/mL BSA, 15 nM tritium labelled cAMP and varying amounts of inhibitors. Reactions were initiated by addition of the cyclic nucleotide substrate, and reactions were allowed to proceed for 1 hr at room temperature before being terminated through mixing with 20 μL (0.2 mg) yttrium silicate SPA beads (PerkinElmer). The beads were allowed to settle for 1 hr in the dark before the plates were counted in a Wallac 1450 Microbeta counter. The measured signals were converted to activity relative to an uninhibited control (100%) and IC50 values were calculated using XIFit (model 205, IDBS).

PDE1C = PDE1C (Homo sapiens, UniProt Q14123); assay: PDE1 inhibition assay (PDE1C), SPA with tritium labelled cAMP; details: 15 nM tritium labelled cAMP, 1 hr at room temperature
PDE1C, sequence (Q14123 whole entry): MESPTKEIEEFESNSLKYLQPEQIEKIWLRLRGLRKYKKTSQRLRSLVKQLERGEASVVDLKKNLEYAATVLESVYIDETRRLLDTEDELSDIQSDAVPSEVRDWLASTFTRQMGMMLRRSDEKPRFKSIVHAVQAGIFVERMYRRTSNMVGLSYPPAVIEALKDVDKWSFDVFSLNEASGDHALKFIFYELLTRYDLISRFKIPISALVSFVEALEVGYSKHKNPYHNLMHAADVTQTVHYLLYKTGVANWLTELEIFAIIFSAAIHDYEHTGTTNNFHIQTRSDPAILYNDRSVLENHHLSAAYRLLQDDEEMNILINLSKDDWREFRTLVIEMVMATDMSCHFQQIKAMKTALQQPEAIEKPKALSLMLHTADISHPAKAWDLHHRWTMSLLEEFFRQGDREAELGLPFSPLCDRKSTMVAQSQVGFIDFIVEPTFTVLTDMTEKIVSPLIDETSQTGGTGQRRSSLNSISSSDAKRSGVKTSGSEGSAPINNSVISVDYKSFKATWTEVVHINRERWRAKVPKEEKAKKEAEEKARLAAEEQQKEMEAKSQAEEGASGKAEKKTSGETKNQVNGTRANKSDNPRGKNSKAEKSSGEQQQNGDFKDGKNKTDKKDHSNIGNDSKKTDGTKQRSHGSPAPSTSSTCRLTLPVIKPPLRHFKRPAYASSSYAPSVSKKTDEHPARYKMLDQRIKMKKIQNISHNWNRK
Procedure: as §1

PDE1A = PDE1A (Homo sapiens, UniProt P54750); assay: PDE1 inhibition assay (PDE1A), SPA with tritium labelled cAMP; details: 15 nM tritium labelled cAMP, 1 hr at room temperature
PDE1A, sequence (P54750 whole entry): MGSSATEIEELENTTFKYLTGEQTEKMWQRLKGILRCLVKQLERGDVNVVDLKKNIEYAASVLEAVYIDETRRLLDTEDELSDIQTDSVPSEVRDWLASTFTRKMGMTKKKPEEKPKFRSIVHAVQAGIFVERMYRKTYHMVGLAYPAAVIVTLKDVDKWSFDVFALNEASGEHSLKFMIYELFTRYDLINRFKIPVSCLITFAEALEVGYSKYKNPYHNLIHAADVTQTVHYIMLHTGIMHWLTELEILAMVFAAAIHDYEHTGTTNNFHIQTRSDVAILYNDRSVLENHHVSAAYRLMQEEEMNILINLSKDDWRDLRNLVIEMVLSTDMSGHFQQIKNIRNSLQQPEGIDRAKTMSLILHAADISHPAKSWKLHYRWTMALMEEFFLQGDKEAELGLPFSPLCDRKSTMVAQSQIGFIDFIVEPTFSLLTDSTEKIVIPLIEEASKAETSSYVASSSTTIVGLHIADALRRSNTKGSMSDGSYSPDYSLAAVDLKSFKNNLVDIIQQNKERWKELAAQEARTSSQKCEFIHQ
Procedure: as §1

PDE9, sequence (O76083 whole entry): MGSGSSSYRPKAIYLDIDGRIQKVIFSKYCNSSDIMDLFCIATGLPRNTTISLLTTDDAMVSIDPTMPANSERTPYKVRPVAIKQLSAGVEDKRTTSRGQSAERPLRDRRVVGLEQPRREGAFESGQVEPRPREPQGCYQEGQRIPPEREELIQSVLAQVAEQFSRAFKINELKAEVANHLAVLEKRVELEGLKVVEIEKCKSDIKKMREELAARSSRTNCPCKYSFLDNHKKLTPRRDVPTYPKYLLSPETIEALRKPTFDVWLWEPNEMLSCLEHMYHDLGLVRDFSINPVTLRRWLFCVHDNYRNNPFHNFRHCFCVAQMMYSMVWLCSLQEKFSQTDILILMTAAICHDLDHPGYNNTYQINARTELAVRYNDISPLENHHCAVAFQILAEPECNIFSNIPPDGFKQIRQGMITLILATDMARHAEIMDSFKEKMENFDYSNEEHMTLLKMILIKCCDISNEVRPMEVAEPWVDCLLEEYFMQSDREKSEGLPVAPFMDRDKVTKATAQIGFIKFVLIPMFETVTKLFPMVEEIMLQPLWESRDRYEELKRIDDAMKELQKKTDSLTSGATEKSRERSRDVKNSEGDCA

SMILES | inhibition at 10 µM (PDE9) | IC50 (PDE1B) | IC50 (PDE1C) | IC50 (PDE1A) | % inhibition of PDE9 at 10 microM (PDE9)
Cc1ccc(Cc2nn3c(C4CCOCC4)ncc3c(=O)n2CC2CC2)cc1 [Example 8, 3-(Cyclopropylmethyl)-2-(4-methylbenzyl)-7-(tetrahydro-2H-pyran-4-yl)imidazo[5,1-f][1,2,4]triazin-4(3H)-one] | 9% | 103 nM | 78 nM | 63 nM | –
O=c1c2cnc(C3CCOCC3)n2ncn1CC1CCCCCC1 [Example 29, 3-(Cycloheptylmethyl)-7-(tetrahydro-2H-pyran-4-yl)imidazo[5,1-f][1,2,4]triazin-4(3H)-one] | 21% | 52 nM | 25 nM | 33 nM | –
Cc1ccc(Cc2nn3c(C4CCOCC4)ncc3c(=O)n2CC2CCC(C)CC2)cc1 (single isomer, unassigned) [11 Stereoisomer 1] | – | 33 nM | 69 nM | 43 nM | −9%
Cc1ccc(Cc2nn3c(C4CCOCC4)ncc3c(=O)n2CC2CCOC2)cc1 (single isomer, unassigned) [12 Stereoisomer 2] | – | 67 nM | 151 nM | 100 nM | 7%
Cc1nn2c(C3CCOCC3)ncc2c(=O)n1Cc1cccc(F)c1 [Example 13, 3-(3-Fluorobenzyl)-2-methyl-7-(tetrahydro-2H-pyran-4-yl)imidazo[5,1-f][1,2,4]triazin-4(3H)-one] | -4% | 258 nM | 29 nM | 127 nM | –
Cc1cccc(Cn2c(C)nn3c(C4CCOCC4)ncc3c2=O)c1 [Example 18, 2-Methyl-3-(3-methylbenzyl)-7-(tetrahydro-2H-pyran-4-yl)imidazo[5,1-f][1,2,4]triazin-4(3H)-one] | -30% | 188 nM | 20 nM | 265 nM | –
Cc1nn2c(C3CCOCC3)ncc2c(=O)n1Cc1ccccc1F [Example 20, 3-(2-Fluorobenzyl)-2-methyl-7-(tetrahydro-2H-pyran-4-yl)imidazo[5,1-f][1,2,4]triazin-4(3H)-one] | 21% | 139 nM | 15 nM | 54 nM | –
O=c1c2cnc(C3CCOCC3)n2ncn1CC1CCCCC1 [Example 26, 3-(Cyclohexylmethyl)-7-(tetrahydro-2H-pyran-4-yl)imidazo[5,1-f][1,2,4]triazin-4(3H)-one] | 8% | 376 nM | 103 nM | 554 nM | –
Cc1nn2c(C3CCOCC3)ncc2c(=O)n1Cc1ccc(Cl)cc1 [Example 24, 3-(4-Chlorobenzyl)-2-methyl-7-(tetrahydro-2H-pyran-4-yl)imidazo[5,1-f][1,2,4]triazin-4(3H)-one] | -11% | 61 nM | 104 nM | 35 nM | –
Cc1nn2c(C3CCOCC3)ncc2c(=O)n1Cc1ccccc1 [Example 15, 3-Benzyl-2-methyl-7-(tetrahydro-2H-pyran-4-yl)imidazo[5,1-f][1,2,4]triazin-4(3H)-one] | -13% | 162 nM | 17 nM | 70 nM | –
CCCn1c(Cc2ccc(C)cc2)nn2c(C3CCOCC3)ncc2c1=O [Example 4, 2-(4-Methylbenzyl)-3-propyl-7-(tetrahydro-2H-pyran-4-yl)imidazo[5,1-f][1,2,4]triazin-4(3H)-one] | 9% | 40 nM | 61 nM | 83 nM | –
Cc1nn2c(C3CCOCC3)ncc2c(=O)n1Cc1cccc(Cl)c1 [Example 17, 3-(3-Chlorobenzyl)-2-methyl-7-(tetrahydro-2H-pyran-4-yl)imidazo[5,1-f][1,2,4]triazin-4(3H)-one] | 5% | 159 nM | 14 nM | 63 nM | –
Cc1nn2c(C3CCOCC3)ncc2c(=O)n1Cc1ccc(F)cc1 [Example 14, 3-(4-Fluorobenzyl)-2-methyl-7-(tetrahydro-2H-pyran-4-yl)imidazo[5,1-f][1,2,4]triazin-4(3H)-one] | 18% | 134 nM | 35 nM | 77 nM | –
Cc1nn2c(C3CCOCC3)ncc2c(=O)n1Cc1ccccc1Cl [Example 16, 3-(2-Chlorobenzyl)-2-methyl-7-(tetrahydro-2H-pyran-4-yl)imidazo[5,1-f][1,2,4]triazin-4(3H)-one] | 11% | 220 nM | 20 nM | 118 nM | –
COc1cccc(Cn2c(C)nn3c(C4CCOCC4)ncc3c2=O)c1 [Example 19, 3-(3-Methoxybenzyl)-2-methyl-7-(tetrahydro-2H-pyran-4-yl)imidazo[5,1-f][1,2,4]triazin-4(3H)-one] | 4% | 259 nM | 52 nM | 115 nM | –
Cc1ccccc1Cn1c(C)nn2c(C3CCOCC3)ncc2c1=O [Example 21, 2-Methyl-3-(2-methylbenzyl)-7-(tetrahydro-2H-pyran-4-yl)imidazo[5,1-f][1,2,4]triazin-4(3H)-one] | 13% | 454 nM | 37 nM | 367 nM | –
Cc1nn2c(C3CCOCC3)ncc2c(=O)n1CC1CCCCC1 [Example 1, 3-(Cyclohexylmethyl)-2-methyl-7-(tetrahydro-2H-pyran-4-yl)imidazo[5,1-f][1,2,4]triazin-4(3H)-one] | 26% | 30 nM | 9 nM | 15 nM | –
CCn1c(Cc2ccc(C)cc2)nn2c(C3CCOCC3)ncc2c1=O [Example 3, 3-Ethyl-2-(4-methylbenzyl)-7-(tetrahydro-2H-pyran-4-yl)imidazo[5,1-f][1,2,4]triazin-4(3H)-one] | 15% | 79 nM | 279 nM | 180 nM | –
